Measured values taken from patent US10106558B2, “Azolobenzazine compounds, compositions comprising these compounds and their use for controlling invertebrate pests” (BASF SE, priority 2015, dated 2018).
Read-outs that look alike come from different tables or passages of the source.

How the values were obtained:
Format in all cases: in vivo
[1] = test system: boll weevil (Anthonomus grandis); test: Action on boll weevil, eggs on insect diet in 96-well microtiter plates; conditions: 120 h, read-out: mortality in comparison with untreated controls
Experimental: Example B3: Action on Boll Weevil (Anthonomus grandis)
For evaluating control of boll weevil (Anthonomus grandis) the test unit consisted of 96-well-microtiter plates containing an insect diet and 5-10 A. grandis eggs.
(§1) The compounds were formulated using a solution containing 75% v/v water and 25% v/v DMSO. Different concentrations of formulated compounds were sprayed onto the insect diet at 5 μl, using a custom built micro atomizer, at two replications.
After application, microtiter plates were incubated at about 25±1° C. and about 75±5% relative humidity for 5 days. Egg and larval mortality was then visually assessed.

[2] = test system: Mediterranean fruitfly (Ceratitis capitata); test: Action on Mediterranean fruitfly, eggs on insect diet in microtiter plates; conditions: 120 h, egg and larval mortality visually assessed after 5 days, read-out: mortality in comparison with untreated controls
Experimental: Example B5: Action on Mediterranean Fruitfly (Ceratitis capitata)
For evaluating control of Mediterranean fruitfly (Ceratitis capitata) the test unit consisted of microtiter plates containing an insect diet and 50-80 C. capitata eggs.
as §1
After application, microtiter plates were incubated at about […] and about 80+5% relative humidity for 5 days. Egg and larval mortality was then visually assessed.

[3] = test system: tobacco budworm (Heliothis virescens); test: Action on tobacco budworm, eggs on insect diet in 96-well microtiter plates; conditions: 120 h, egg and larval mortality visually assessed after 5 days, read-out: mortality in comparison with untreated controls
Experimental: Example B6: Action on Tobacco Budworm (Heliothis virescens)
For evaluating control of tobacco budworm (Heliothis virescens) the test unit consisted of 96-well-microtiter plates containing an insect diet and 15-25 H. virescens eggs.
The compounds were formulated using a solution containing 75% v/v water and 25% v/v DMSO. Different concentrations of formulated compounds were sprayed onto the insect diet at 10 μl, using a custom built micro atomizer, at two replications.
After application, microtiter plates were incubated at about 28±1° C. and about 80±5% relative humidity for 5 days. Egg and larval mortality was then visually assessed.

[4] = test system: yellow fever mosquito (Aedes aegypti); test: whole plant or invertebrate; conditions: 48 h, larval mortality visually assessed after 2 days, read-out: mortality in comparison with untreated controls
Experimental: Example B1: Action on Yellow Fever Mosquito (Aedes aegypti)
For evaluating control of yellow fever mosquito (Aedes aegypti) the test unit consisted of 96-well-microtiter plates containing 200 μl of tap water per well and 5-15 freshly hatched A. aegypti larvae.
The active compounds were formulated using a solution containing 75% (v/v) water and 25% (v/v) DMSO. Different concentrations of formulated compounds or mixtures were sprayed onto the insect diet at 2.5 μl, using a custom built micro atomizer, at two replications.
After application, microtiter plates were incubated at 28+1° C., 80+5% RH for 2 days. Larval mortality was then visually assessed.

[5] = test system: Diamond Back Moth (Plutella xylostella); test: Action on diamond back moth, dipped cabbage leaves; conditions: 3rd instar larvae, 72 hours after treatment, read-out: mortality in comparison with untreated controls
Experimental: Example B9: Action on Diamond Back Moth (Plutella xylostella)
The active compound is dissolved at the desired concentration in a mixture of 1:1 (vol:vol) distilled water:acetone. Surfactant (Kinetic® HV) is added at a rate of 0.01% (vol/vol). The test solution is prepared at the day of use.
Leaves of cabbage were dipped in test solution and air-dried. Treated leaves were placed in petri dishes lined with moist filter paper and inoculated with ten 3rd instar larvae. Mortality was recorded 72 hours after treatment. Feeding damages were also recorded using a scale of 0-100%.

[6] = test system: Orchid Thrips (Dichromothrips corbetti); test: Action on orchid thrips, floral-immersion technique; conditions: adult thrips, 72 hours after treatment, read-out: mortality in comparison with untreated controls
Experimental: Example B2: Action on Orchid Thrips (Dichromothrips Corbetti)
Dichromothrips corbettiadults used for bioassay were obtained from a colony maintained continuously under laboratory conditions. For testing purposes, the test compound is diluted in a 1:1 mixture of acetone:water (vol:vol), plus Kinetic® HV at a rate of 0.01% v/v.
Thrips potency of each compound was evaluated by using a floral-immersion technique. All petals of individual, intact orchid flowers were dipped into treatment solution and allowed to dry in Petri dishes. Treated petals were placed into individual re-sealable plastic along with about 20 adult thrips. All test arenas were held under continuous light and a temperature of about 28° C. for duration of the assay. After 3 days, the numbers of live thrips were counted on each petal. The percent mortality was recorded 72 hours after treatment.

[7] = test system: Southern Armyworm (Spodoptera eridania), 2nd instar larvae; test: Action on southern armyworm 2nd instar larvae, sprayed lima bean plants; conditions: 96 h, 4 days after treatment, read-out: mortality in comparison with untreated controls
Experimental: Example B10: Action on Southern Armyworm (Spodoptera eridania), 2nd Instar Larvae
The active compounds were formulated by a Tecan liquid handler in 100% cyclohexanone as a 10,000 ppm solution supplied in tubes. The 10,000 ppm solution was serially diluted in 100% cyclohexanone to make interim solutions. These served as stock solutions for which final dilutions were made by the Tecan in 50% acetone:50% water (v/v) into 10 or 20 ml glass vials. A nonionic surfactant (Kinetic®) was included in the solution at a volume of 0.01% (v/v). The vials were then inserted into an automated electrostatic sprayer equipped with an atomizing nozzle for application to plants/insects.
Lima bean plants (variety Sieva) were grown 2 plants to a pot and selected for treatment at the 1st true leaf stage. Test solutions were sprayed onto the foliage by an automated electrostatic plant sprayer equipped with an atomizing spray nozzle. The plants were dried in the sprayer fume hood and then removed from the sprayer. Each pot was placed into perforated plastic bags with a zip closure. About 10 to 11 armyworm larvae were placed into the bag and the bags zipped closed. Test plants were maintained in a growth room at about 25° C. and about 20-40% relative humidity for 4 days, avoiding direct exposure to fluorescent light (24 hour photoperiod) to prevent trapping of heat inside the bags. Mortality and reduced feeding were assessed 4 days after treatment, compared to untreated control plants.

[8] = 800 ppm, egg and larval mortality visually assessed after 5 days

Cc1cccc(C)c1NC(=S)N/N=C/c1ccc2c(ccc3c2ncn3-c2ccc(OC(F)(F)F)cc2)n1 [Compound C-1, 1-(2,6-dimethylphenyl)-3-[(E)-[3-[4-(trifluoromethoxy)phenyl]imidazo[4,5-f]quinolin-7-yl]methyleneamino]thiourea]
≥ 75%: mortality at 800 ppm [1, 8] | mortality at 800 ppm [2] | mortality at 800 ppm [3] | mortality at 800 ppm [4]

Cc1cccc(C)c1N1C(=O)CS/C1=N\N=C\c1ccc2c(ccc3c2ncn3-c2ccc(OC(F)(F)F)cc2)n1 [Compound C-2, (2Z)-3-(2,6-dimethylphenyl)-2-[(E)-[3-[4-(trifluoromethoxy)phenyl]imidazo[4,5-f]quinolin-7-yl]methylenehydrazono]thiazolidin-4-one]
≥ 75%: mortality at 800 ppm [1, 8] | mortality at 500 ppm [5] | mortality at 800 ppm [2] | mortality at 500 ppm [6] | mortality at 500 ppm [7] | mortality at 800 ppm [3] | mortality at 800 ppm [4]

Cc1cccc(C)c1/N=C1\SCC(=O)N1/N=C/c1ccc2c(ccc3c2ncn3-c2ccc(OC(F)(F)F)cc2)n1 [Compound C-7, (2Z)-2-(2,6-dimethylphenyl)imino-3-[(E)-[3-[4-(trifluoromethoxy)phenyl]imidazo[4,5-f]quinolin-7-yl]methyleneamino]thiazolidin-4-one]
≥ 75%: mortality at 800 ppm [1, 8] | mortality at 500 ppm [5] | mortality at 800 ppm [2] | mortality at 500 ppm [6] | mortality at 500 ppm [7] | mortality at 800 ppm [3] | mortality at 800 ppm [4]

CC1CCC(C(C)C)C(OC(=O)Nc2ccc3c(ccc4c3ncn4-c3ccc(OC(F)(F)F)cc3)n2)C1 (centres unmarked) [Compound C-12, (2-isopropyl-5-methyl-cyclohexyl) N-[3-[4-(trifluoromethoxy)phenyl]imidazo[4,5-f]quinolin-7-yl]carbamate]
≥ 75%: mortality at 800 ppm [1]

CC(C)c1ccccc1NC(=S)N/N=C/c1cnc2c(ccc3c2ncn3-c2ccc(OC(F)(F)F)cc2)c1 [Compound C-13, 1-(2-isopropylphenyl)-3-[(E)-[3-[4-(trifluoromethoxy)phenyl]imidazo[4,5-h]quinolin-7-yl]methyleneamino]thiourea]
≥ 75%: mortality at 800 ppm [1, 8] | mortality at 500 ppm [5] | mortality at 800 ppm [2] | mortality at 500 ppm [7] | mortality at 800 ppm [3]

Cc1cccc(C)c1NC(=S)N/N=C/c1cnc2c(ccc3c2ncn3-c2ccc(OC(F)(F)F)cc2)c1 [Compound C-14, 1-(2,6-dimethylphenyl)-3-[(E)-[3-[4-(trifluoromethoxy)phenyl]imidazo[4,5-h]quinolin-7-yl]methyleneamino]thiourea]
≥ 75%: mortality at 800 ppm [1, 8] | mortality at 500 ppm [5] | mortality at 800 ppm [2] | mortality at 500 ppm [6] | mortality at 800 ppm [3] | mortality at 800 ppm [4]

Cc1cccc(C)c1N1C(=O)CS/C1=N\N=C\c1cnc2c(ccc3c2ncn3-c2ccc(OC(F)(F)F)cc2)c1 [Compound C-15, (2Z)-3-(2,6-dimethylphenyl)-2-[(E)-[3-[4-(trifluoromethoxy)phenyl]imidazo[4,5-h]quinolin-7-yl]methylenehydrazono]thiazolidin-4-one]
≥ 75%: mortality at 800 ppm [1, 8] | mortality at 500 ppm [5] | mortality at 800 ppm [2] | mortality at 500 ppm [6] | mortality at 500 ppm [7] | mortality at 800 ppm [3] | mortality at 800 ppm [4]

CC(C)c1ccccc1N1CCCS/C1=N/N=C/c1ccc2c(ccc3c2ncn3-c2ccc(OC(F)(F)F)cc2)n1 [Compound C-22, (E)-3-(2-isopropylphenyl)-N-[(E)-[3-[4-(trifluoromethoxy)phenyl]imidazo[4,5-f]quinolin-7-yl]methyleneamino]-1,3-thiazinan-2-imine]
≥ 75%: mortality at 800 ppm [1, 8] | mortality at 500 ppm [5] | mortality at 800 ppm [2] | mortality at 500 ppm [6] | mortality at 800 ppm [3] | mortality at 800 ppm [4]

CC(C)c1ccccc1NC(=S)N/N=C/c1cc2ccc3c(ncn3-c3ccc(OC(F)(F)F)cc3)c2cn1 [Compound C-24, 1-(2-isopropylphenyl)-3-[(E)-[3-[4-(trifluoromethoxy)phenyl]imidazo[4,5-h]isoquinolin-7-yl]methyleneamino]thiourea]
≥ 75%: mortality at 800 ppm [1, 8] | mortality at 500 ppm [5] | mortality at 800 ppm [2] | mortality at 500 ppm [7] | mortality at 800 ppm [3]

Cc1cccc(C)c1NC(=S)N/N=C/c1cc2ccc3c(ncn3-c3ccc(OC(F)(F)F)cc3)c2cn1 [Compound C-25, 1-(2,6-dimethylphenyl)-3-[(E)-[3-[4-(trifluoromethoxy)phenyl]imidazo[4,5-h]isoquinolin-7-yl]methyleneamino]thiourea]
≥ 75%: mortality at 800 ppm [1, 8] | mortality at 500 ppm [5] | mortality at 800 ppm [2] | mortality at 800 ppm [3]

CC(C)c1ccccc1NC(=S)N/N=C/c1ccc2c(ccc3c2ncn3-c2ccc(OC(F)F)cc2)n1 [Compound C-31, 1-[(E)-[3-[4-(difluoromethoxy)phenyl]imidazo[4,5-f]quinolin-7-yl]methyleneamino]-3-(2-isopropylphenyl)thiourea]
≥ 75%: mortality at 500 ppm [5] | mortality at 500 ppm [6]

CC(C)c1ccccc1N1C(=O)CS/C1=N/N=C/c1ccc2c(ccc3c2ncn3-c2ccc(OC(F)F)cc2)n1 [Compound C-32, (2E)-2-[(E)-[3-[4-(difluoromethoxy)phenyl]imidazo[4,5-f]quinolin-7-yl]methylenehydrazono]-3-(2-isopropylphenyl)thiazolidin-4-one]
≥ 75%: mortality at 500 ppm [5] | mortality at 500 ppm [6]
